{
  "source": "patent US20230371814A1",
  "about": "“WIRELESS THERANOSTIC SMART CONTACT LENS CAPABLE OF MEASURING AND ADJUSTING INTRAOCULAR PRESSURE IN GLAUCOMA PATIENTS” (POSTECH RESEARCH AND BUSINESS DEVELOPMENT FOUNDATION, priority 2022, published 2023)",
  "test": "In vitro release of timolol from the drug reservoir of the flexible DDS",
  "assay_type": "physicochemical",
  "description": "An electrochemical reaction of gold was examined in vitro in PBS (pH 7.4) and artificial tears having a constant voltage of 1.85 V. Timolol was released from the drug reservoir by applying a voltage of 1.85 V to an anode and a cathode of a DDS for 5 minutes. A concentration of the released timolol was quantified with a UV-vis spectrometer at an absorbance wavelength of 259 nm.",
  "data": [
    {"molecule": "CC(C)(C)NC[C@H](O)COc1nsnc1N1CCOCC1", "note": "[timolol]", "values": [
      {"measurement": "drug (timolol) released", "setting": "absence of the PVA layer", "value": "less than 50%"},
      {"measurement": "timolol released without electrical triggering", "setting": "for 90 minutes, without electrical triggering", "value": "less than 5%"},
      {"measurement": "drug (timolol) dissolution", "setting": "presence of PVA", "value": "completely dissolved"},
      {"measurement": "time until almost all of the timolol was completely released", "setting": "presence of PVA", "value": "≤ 30", "unit": "min"},
      {"measurement": "timolol released within 5 minutes", "setting": "presence of PVA, within 5 minutes", "value": "less than 85%"},
      {"measurement": "cumulative release of timolol at each activation", "setting": "three reservoirs activated at 10, 25 and 40 minutes", "value": "significantly enhanced"},
      {"measurement": "cumulative release of timolol before activation", "setting": "three reservoirs, until 10 minutes (before first activation)", "value": "no significant release"}
    ]}
  ]
}
